Test results: patent US9156862B2, “Silylated azulenyl nitrone spin traps as chromotropic superoxide detectors” (THE FLORDIA INTERNATIONAL UNIVERSITY BOARD OF TRUSTEES, priority 2011, dated 2015)
One block for each compound: values may come before it.

Experiments:
[1] = in cyclohexane; cited from earlier work
[2] = Superoxide trapping: reaction of nitrone with potassium superoxide and crown ether in benzene; settings: for trapping of superoxide radical anion: in vitro, yielding UV-VIS identifiable orange products; for colour change / coloured product upon reaction with potassium superoxide: potassium superoxide (3 or 6 equiv.)
Excerpt: Thus, the amounts of potassium superoxide and crown ether were increased to 5 equivalents. Still no product was observed. The result could be due to the fact that not enough superoxide radical anion was present because of poor solubility of potassium superoxide. Therefore, 20 equivalents of potassium superoxide and crown ether were directly treated with nitrone 22. These conditions gave a product in very low yield which was impossible to identify. Finally, nitrone 22 was directly treated using 6 equivalents of potassium superoxide. […] The product was identified as aldehyde 67 by observing the aldehyde-proton signal and the up-field shifting of the ethyl signal of the azulene ring.
The detection of superoxide with azulenysilane mononitrone 23 was based on the previous method as described (vida supra). Six equivalents of potassium superoxide were used as before. As mentioned earlier, the previous reaction was monitored by observing an orange product on TLC. […] Based on the previous mechanism, it was expected to obtain the end product bis-aldehyde 72. However, ^1H NMR spectral information of the orange end product indicated the loss of the silyl group, and presence of only the mono-aldehyde. The low resolution mass spectrum detected a MH^+ of 448. Unfortunately, it was not possible to purify enough for the NMR characterization. […] It is believed that the superoxide spin adduct that formed was unstable and fragmented into another compound rather than the expected one. The loss of the silyl group could result after rearrangement via a nucleophilic attack on silicon by a second superoxide anion since an excess of superoxide anion was used and due to the high affinity of silicon towards oxygen.
The unidentified end product from superoxide radical anion with nitrone 23 led us to synthesize an analogue, the isoxazoline azulenylsilanenitrone 24, and test it for its possible utility in superoxide detection. Using the same method as described earlier, superoxide was solubilized in benzene by employing in acrown ether. The only difference in this case was the use of three equivalents of potassium superoxide instead of six equivalents. […] As in the previous case, aldehyde product 73 was expected to be formed. […] With HRMS and NMR spectral analyses, the orange product was identified as amide 74.
Guanylhydrazone nitrone 25 is a congener of nitrone 24. Incorporation of guanylhydrazone moiety may make it mitochondriotropic, and thereby render it useful to detect superoxide anion present in the mitochondria. […] The brownish orange end product was isolated and identified as amide 80 using low resolution mass spectrum (MH^+=654) which is analogous to the end product 74. In addition to amide 80, a trace of another orange product was also observed which is identified as amide 81 (MH^+=768) analogous to amide 79.
6 mg of nitrone 22 (0.0163 mmol) was mixed with 6.9 mg of potassium superoxide (0.097 mmol, 6 equiv.) and 8.6 mg of crown ether (0.032 mmol, 2 equiv.) and dissolved the mixture in 1 ml of benzene. The reaction was stirred for 3 hr at room temperature. The product was washed with 10 ml of saturated sodium chloride several times, dried over magnesium sulfate and concentrated. The mixture was purified by column chromatography using 5:5 hexane:ethylacetate to give 2.2 mg of crude 67 (43%). It was not possible to obtain 67 pure enough for definitive NMR characterization. […] When the same reaction was stirred for three days, another orange product was observed. […] Impossible to isolate this product in pure form, the structure was not identified.
20 mg of nitrone 24 was treated with 7.5 mg of potassium superoxide and 18.6 mg of crown ether in 1 ml of benzene. The reaction was stirred for 16 hr at room temperature. The mixture was then washed with 10 ml of saturated sodium chloride several times, dried and concentrated. […]

[3] = Fluorescence and quantum yield of superoxide trapping product in ethanol; type: physicochemical; settings: excitation wavelength 390 nm
Procedure: The UV-vis (ultra visible) absorption spectrum and fluorescence of chromotropic amide 74 was measured in ethanol. […] The fluorescence signal, indicated by red signal, was obtained by irradiating at the excitation wavelength 390 nm as shown in the spectrum. The wavelength dependence of the intensity of emitted light has been recorded at ˜490 nm (emission). The quantum yield of amide was measured at 2.7%. […] This, in addition to its chromotropic behavior, may bring an advantage over conventional cyclic nitrones which require ESR for superoxide detection.
All of the moisture sensitive reactions have been carried out using syringe septum rubber cap technique under N2 or Ar atmosphere or in a vial by flushing N2 or Ar gas into it. […] All of the reactions were monitored by TLC analysis (Whatman pre-coated silica gel F254 plates, 250 μm layer thickness), and visualization was achieved by 254 nm UV light. The crude reaction mixtures have been purified by column chromatography using 60 A (200-300 mess) on silica gel. ^1H and ^13C NMR spectra were recorded on Bruker AVANCE-400 spectrometer in CDCl3. Chemical shifts were measured in parts per million with residual solvent peak used as an internal standard. ^1H NMR spectra were run at 400 MHz and ^13C NMR spectra were recorder at […] with proton decoupled sequence. […] UV-vis spectrum was recorded using a Varian Cary 50 Bio spectrophotometer. […]

[4] = type: physicochemical
Procedure: Solutol HS 15 is a non-ionic solubilizer and emulsifying agent produced from 1 mole of 12-hydroxystearic acids and 15 moles of ethylene oxide. […] To prepare the concentration of 0.64 mg/ml of nitrone 25 in 3:7 solutol HS 15:1% saline solution, 1 ml of solutol HS 15 was heated until it turned into a clear liquid and cooled to room temperature. Meanwhile, 2.1 mg of nitrone 25 was crushed to a fine powder and dissolved in 1 ml of clear solutol HS 15. It was then diluted with 2.3 ml of 1% saline solution in water with frequent shaking and warming. It was then cool to room temperature to obtained green solution. The green solution was kept in a freezer, and found to be stable. The aqueous formulation of nitrone 25 with solutol HS 15 is believed to be amenable for mitochondrial superoxide detection and other biological studies.

[5] = crown ether, benzene, room temperature

Compound: C(#Cc1c2ccccc2c(C#Cc2ccccc2)c2ccccc12)c1ccccc1 [9,10-bis(phenylethynyl)anthracene]
quantum yield (QY) of fluorescence standard [1]: 1.0

Compound: CCc1c2cccccc-2c(C=O)c1O[Si](C)(C)C(C)(C)C [aldehyde 67]
stability of aldehyde end product ([2]; under the superoxide reaction conditions, decomposed as reaction proceeded): very unstable

fluorescence emission wavelength [3]: ~490 nm
fluorescence quantum yield [3]: 2.7%
Compound: CC(C)(C)NC(=O)c1c2cccccc-2c2c(NC(C)(C)C)c(C(=O)c3ccccc3)c(=N)oc12 [amide 74]

Compound: CCc1c2cccccc-2c(/C=[N+](\[O-])C(C)(C)C)c1[Si](C)(C)C(C)(C)C [nitrone 22, 2-terbutyldimethylsilyl-1ethyl-3-azulenylnitrone]
trapping of superoxide radical anion [2]: trap superoxide radical anion efficiently
reaction with superoxide ([2]; one to five equivalents of potassium superoxide and one equivalent of crown ether in benzene, room temperature): No reaction was observed
colour change / coloured product upon reaction with potassium superoxide [2, 5]: less polar orange product

Compound: CC(C)(C)/[N+]([O-])=C/c1c2cccccc-2c(C=O)c1[Si](C)(C)C(C)(C)C [nitrone 23, 2-tert-butyldimethylsilyl-3-formyl-azulene-1-nitrone]
trapping of superoxide radical anion [2]: trap superoxide radical anion efficiently
colour change / coloured product upon reaction with potassium superoxide [2, 5]: turned completely from green to orange
time for reaction mixture to turn completely from green to orange ([2]; six equivalents of potassium superoxide, crown ether, benzene): 90 min

Compound: CC(C)(C)N1OC(c2ccccc2)=C(C#N)C1c1c2cccccc-2c(/C=[N+](\[O-])C(C)(C)C)c1[Si](C)(C)C(C)(C)C (stereo not shown) [nitrone 24, 2-tert-butyl-3-[2-(tert-butyldimethyl-silanyl)-3-nitrone-azulen-1-yl]-5-phenyl-2,3-dihydro-isoxazole-4-carbonitrile]
trapping of superoxide radical anion [2]: trap superoxide radical anion efficiently
colour change / coloured product upon reaction with potassium superoxide [2, 5]: completely turned into orange solution

Compound: [H]/N=C(\N)N/N=C/c1cccc(C#Cc2cccc(C3=C(C#N)C(c4c5cccccc-5c(/C=[N+](\[O-])C(C)(C)C)c4[Si](C)(C)C(C)(C)C)N(C(C)(C)C)O3)c2)c1 (stereo not shown) [nitrone 25, 2-tert-butyl-3-[2-(tert-butyldimethyl-silanyl)-3-nitrone-azulen-1-yl]-5-[3-(3-guanylhydrazone-phenylethynyl)-phenyl]-2,3-dihydro-isoxazole-4-carbonitrile]
trapping of superoxide radical anion [2]: trap superoxide efficiently
trapping of superoxide radical anion ([2]; listed as 25): trap superoxide radical anion efficiently
concentration in solution [4]: 640 µg/mL
effect of solutol HS 15 on solubility in water [4]: increase the solubility
stability of solution [4]: stable
water solubility [4]: poorly water soluble

Compound: Cc1c2cccccc-2c(C)c1[Si](C)(C)C(C)(C)C [nitrone 40, 2-tert-butyldimethylsilyl-1,3-dimethylazulene]
colour change / coloured product upon reaction with potassium superoxide [2, 5]: turned into brownish orange
